Where two headings read alike, the source gives them in different places.
How the values were obtained:
[1] = test system: Key Broadleaf Weed and Crop Species; experiment: Post-emergent Test II herbicidal activity (Table 5); type: in vivo; conditions: post-emergence, 336 h, 14 days after application; for pest or weed control at 70 g/ha: application rate 70 g ai/ha; for pest or weed control at 140 g/ha: application rate 140 g ai/ha
Method in brief: (§1)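 Foliar application at 187 L/ha to greenhouse-grown seedlings (first or second true leaf); subirrigation thereafter. Visual 0–100% injury at 14 d relative to untreated plants.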

[2] = test system: Key Grass and Sedge Weeds as well as Grass Crops; experiment: Post-emergent Test II herbicidal activity (Table 6); type: in vivo; conditions: post-emergence, 336 h; for pest or weed control at 70 g/ha: 70 g ai/ha; for pest or weed control at 140 g/ha: 140 g ai/ha
Method in brief: as §1

[3] = ABUTH: velvetleaf (Abutilon theophrasti), read-out: Visual Growth Reduction (%) 14 Days After Application, ABUTH
[4] = AMARE: redroot pigweed (Amaranthus retroflexus), read-out: Visual Growth Reduction (%) 14 Days After Application, AMARE
[5] = BRSNN: oilseed-rape, canola (Brassica napus), read-out: Visual Growth Reduction (%) 14 Days After Application, BRSNN
[6] = CHEAL: lambsquarters (Chenopodium album), read-out: Visual Growth Reduction (%) 14 Days After Application, CHEAL
[7] = EPHHL: wild poinsettia (Euphorbia heterophylla), read-out: Visual Growth Reduction (%) 14 Days After Application, EPHHL
[8] = HELAN: sunflower (Helianthus annuus), read-out: Visual Growth Reduction (%) 14 Days After Application, HELAN
[9] = VIOTR: wild pansy (Viola tricolor), read-out: Visual Growth Reduction (%) 14 Days After Application, VIOTR
[10] = CYPES: yellow nutsedge (Cyperus esculentus), read-out: Visual Growth Reduction (%) 14 Days After Application, CYPES
[11] = DIGSA: crabgrass (Digitaria sanguinalis), read-out: Visual Growth Reduction (%) 14 Days After Application, DIGSA
[12] = ECHCG: barnyardgrass (Echinochloa crus-galli), read-out: Visual Growth Reduction (%) 14 Days After Application, ECHCG
[13] = ORYSA: rice (Oryza sativa), crop, read-out: Visual Growth Reduction (%) 14 Days After Application, ORYSA
[14] = SETFA: giant foxtail (Setaria faberi), read-out: Visual Growth Reduction (%) 14 Days After Application, SETFA
[15] = SORVU: grain sorghum (Sorghum vulgare), read-out: Visual Growth Reduction (%) 14 Days After Application, SORVU
[16] = TRZSS (wheat, Triticum aestivum), crop, read-out: Visual Growth Reduction (%) 14 Days After Application, TRZSS
[17] = ZEAMX: maize, corn (Zea mays), crop, read-out: Visual Growth Reduction (%) 14 Days After Application, ZEAMX

Row | SMILES | pest or weed control at 70 g/ha [1, 3] | pest or weed control at 140 g/ha [1, 3] | pest or weed control at 70 g/ha [1, 4] | pest or weed control at 140 g/ha [1, 4] | pest or weed control at 70 g/ha [1, 5] | pest or weed control at 140 g/ha [1, 5] | pest or weed control at 70 g/ha [1, 6] | pest or weed control at 140 g/ha [1, 6] | pest or weed control at 70 g/ha [1, 7] | pest or weed control at 140 g/ha [1, 7] | pest or weed control at 70 g/ha [1, 8] | pest or weed control at 140 g/ha [1, 8] | pest or weed control at 70 g/ha [1, 9] | pest or weed control at 140 g/ha [1, 9] | pest or weed control at 70 g/ha [2, 10] | pest or weed control at 140 g/ha [2, 10] | pest or weed control at 70 g/ha [2, 11] | pest or weed control at 140 g/ha [2, 11] | pest or weed control at 70 g/ha [2, 12] | pest or weed control at 140 g/ha [2, 12] | other results
1 | Nc1c(F)c(-c2ccc([N+](=O)[O-])cc2)nc(C(=O)O)c1Cl [Compound 31, 4-amino-3-chloro-5-fluoro-6-(4-nitrophenyl)picolinic acid] | 0 to 29% | 0 to 29% | 95 to 100% | 95 to 100% | 30 to 44% | 45 to 59% | 60 to 74% | 85 to 94% | 0 to 29% | 0 to 29% | 95 to 100% | 95 to 100% | 0 to 29% | 0 to 29% | 0 to 29% | 0 to 29% | 60 to 74% | 60 to 74% | 75 to 84% | 85 to 94% | pest or weed control at 70 g/ha [2, 13]: 0 to 29%; pest or weed control at 140 g/ha [2, 13]: 0 to 29%; pest or weed control at 70 g/ha [2, 14]: 0 to 29%; pest or weed control at 140 g/ha [2, 14]: 0 to 29%; pest or weed control at 70 g/ha [2, 15]: 0 to 29%; pest or weed control at 140 g/ha [2, 15]: 0 to 29%; pest or weed control at 70 g/ha [2, 16]: 0 to 29%; pest or weed control at 140 g/ha [2, 16]: 0 to 29%; pest or weed control at 70 g/ha [2, 17]: 0 to 29%; pest or weed control at 140 g/ha [2, 17]: 0 to 29%; melting point: 180 to 181 °C
2 | Nc1c(F)c(-c2ccc(I)c(F)c2)nc(C(=O)O)c1Cl [Compound 157] | 85 to 94% | 85 to 94% | 95 to 100% | 95 to 100% | 95 to 100% | 95 to 100% | 95 to 100% | 95 to 100% | 95 to 100% | 95 to 100% | 95 to 100% | 95 to 100% | 95 to 100% | 95 to 100% | 45 to 59% | 45 to 59% | 75 to 84% | 85 to 94% | 95 to 100% | 95 to 100% | pest or weed control at 70 g/ha [2, 13]: 0 to 29%; pest or weed control at 140 g/ha [2, 13]: 0 to 29%; pest or weed control at 70 g/ha [2, 14]: 95 to 100%; pest or weed control at 140 g/ha [2, 14]: 95 to 100%; pest or weed control at 70 g/ha [2, 15]: 85 to 94%; pest or weed control at 140 g/ha [2, 15]: 95 to 100%; pest or weed control at 70 g/ha [2, 16]: 45 to 59%; pest or weed control at 140 g/ha [2, 16]: 45 to 59%; pest or weed control at 70 g/ha [2, 17]: 95 to 100%; pest or weed control at 140 g/ha [2, 17]: 95 to 100%; melting point: 140 to 150 °C (dec.)
3 | Nc1c(F)c(-c2ccc(Br)cc2F)nc(C(=O)O)c1Cl [Compound 163] | 85 to 94% | 85 to 94% | 95 to 100% | 95 to 100% | 95 to 100% | 95 to 100% | 95 to 100% | 95 to 100% | 95 to 100% | 95 to 100% | 95 to 100% | 95 to 100% | 95 to 100% | 95 to 100% | 95 to 100% | 95 to 100% | 75 to 84% | 85 to 94% | 85 to 94% | 85 to 94% | pest or weed control at 70 g/ha [2, 13]: 0 to 29%; pest or weed control at 140 g/ha [2, 13]: 0 to 29%; pest or weed control at 70 g/ha [2, 14]: 85 to 94%; pest or weed control at 140 g/ha [2, 14]: 95 to 100%; pest or weed control at 70 g/ha [2, 15]: 85 to 94%; pest or weed control at 140 g/ha [2, 15]: 85 to 94%; pest or weed control at 70 g/ha [2, 16]: 60 to 74%; pest or weed control at 140 g/ha [2, 16]: 60 to 74%; pest or weed control at 70 g/ha [2, 17]: 45 to 59%; pest or weed control at 140 g/ha [2, 17]: 60 to 74%; melting point: 162 to 164 °C

Reference: patent US9113629B2, “4-amino-6-(4-substituted-phenyl)-picolinates and 6-amino-2-(4-substituted-phenyl)-pyrimidine-4-carboxylates and their use as herbicides” (DOW AGROSCIENCES LLC, priority 2013, dated 2015)
